According to patent US11786503B2, “Pharmaceutical compositions and methods for countering chemotherapy induced cardiotoxicity” (Auransa Inc., priority 2016, dated 2023):
Read-outs that look alike come from different tables or passages of the source.

Tests used:
[1] = test system: Doxorubicin treated human iPSC-derived cardiomyocytes; assay: iPSC-CM protection by myricetin analogs (Table 1); format: cell-based; conditions: for EC50 / Emax: Homo sapiens; for Emax: read-out: iPSC-CM protection Max Effect (%)
[2] = test system: Human iPSC-derived cardiomyocytes; assay: DOX-induced DNA double strand break, γH2AX immunostaining; format: cell-based; conditions: 48 hours
[3] = test system: Human iPSC-derived cardiomyocytes; assay: DOX-induced sarcomere disruption, Cardiac Troponin T immunostaining (Example 8); format: cell-based; conditions: DOX (0.5 μM) plus MYR (100 μM), 72 hours
Protocol: DOX-induced cell death is often manifested by severity of structural disruptions of cardiomyocyte organization (e.g., sarcomere). To assess the protective effect of MYR against DOX-induced sarcomere disruption, human iPSC-derived cardiomyocytes were treated with DMSO, DOX (0.5 μM), or DOX plus MYR (100 μM). After 72 hours of treatment, cells were immunostained with antibody against Cardiac Troponin T (Abcam) to show sarcomeric organization in of the heart cells.

TOPOIIα expression = assay: TOPOIIα mRNA expression in cardiomyocytes; format: cell-based
[4] = test system: Human iPSC-derived cardiomyocytes; assay: cells; format: cell-based; conditions: Cardiomyocyte, 0.5 μM of Doxorubicin, 72 hours, read-out: EC50 for rescue from DOX-induced cell death
Protocol: To measure the rescue rates from the DOX-induced cell death in cardiomyocytes, the protective effect of myricetin was directly compared with that of dexraxozane (DEX; standard of care). Human iPSC-derived cardiomyocytes were treated with 0.5 μM of Doxorubicin and increasing concentrations of myricetin (MYR, circle) or dexraxozane (DEX, square). […] Cells were imaged using INCell Analyzer2200 (GE). […] (n=3).
Next, the ability of MYR to confer cardioprotection was directly compared with that of DHM as these two compounds display distinctive property in their structures and TOPOI inhibition activity. […] Human iPSC-derived cardiomyocytes were treated with 0.5 μM of Doxorubicin and increasing concentrations of myricetin (MYR, circle) or dihydromyricetin (DHM, triangle).

cardiomyocytes [5] = assay: bortezomib-induced cardiotoxicity (Example 14); format: cell-based, human; conditions: 100 μM myricetin
TOPOIIβ mRNA expression = TOPOIIβ mRNA expression in cardiomyocytes; format: cell-based; conditions: for TOPOIIβ mRNA expression: compound alone, DOX at 24 and 48 hours
[6] = test system: Human iPSC-derived cardiomyocytes; assay: DOX-induced contractility dysfunction, Pulse video, 48 hours (Example 7); format: cell-based
[7] = test system: Human stem cell derived cardiomyocytes; assay: sunitinib-induced cell death (Example 14); format: cell-based; conditions: sunitinib (10 μM) plus MYR (1 to 100 μM), 72 hours
[8] = test system: Cardiomyocytes (human iPSC-derived); assay: doxorubicin-induced apoptosis, CellEvent dye, 3 days (Example 4); format: cell-based; conditions: Cardiomyocyte, 72 h, co-treated with 1 μM of doxorubicin, read-out: IC50 for protective effects against apoptosis
Protocol: Cardiomyocytes were prepared as described above. […] Following treatment, the samples were incubated with a CellEvent dye to indicate apoptosis-positive cells, and a second dye to identify cell nuclei.

[9] = test system: sorafenib treated cardiomyocytes; assay: sorafenib-induced contractile dysfunction (Example 14); format: cell-based, human; conditions: 5 μM sorafenib treated cardiomyocytes
[10] = test system: Human iPSC-derived cardiomyocytes; assay: contractility, beat rate by Pulse video, 3 days (Example 3); format: cell-based; conditions: 72 hours; for beat rate: mock-treated 33.33
[11] = test system: human induced pluripotent stem cell-derived cardiomyocytes (iPSC-CM)
C57BL/16 mice = assay: acute anthracycline-induced cardiotoxicity model, echocardiography (Example 16); format: in vivo
Source text: An acute anthracycline-induced cardiotoxicity model was established in 9-10 week old C57BL/16 mice obtained from The Jackson Laboratory. […] General health of the animals was monitored on a daily basis throughout the course of the study. […] Left ventricular (LV) M-mode images were obtained in the two-dimensional short axis view close to the papillary muscles. Tracings of endocardial tissue during systole and diastole were made off line.

[12] = test system: Human iPSC-derived cardiomyocytes; assay: doxorubicin-induced mitochondrial toxicity, TMRM signal, 2 days (Example 2); format: cell-based; conditions: co-treated with 1.25 μM doxorubicin and 79 μM myricetin, compared to 1.25 μM doxorubicin alone
Protocol: Following treatment, the samples were incubated with a tetramethylrhodamine methyl ester (TMRM) dye to indicate mitochondrial health, and Hoechst 33342 to identify cell nuclei. Cells were imaged using the INCell Analyzer2200.

MDA-MB-231 cells [13] = conditions: co-treated with increasing concentrations of doxorubicin, 72 hours
topoisomerase IIβ = topoisomerase IIβ (Homo sapiens, UniProt Q02880); conditions: 100 μM, 24 hours, iPSC-CMs
Chain of topoisomerase IIβ (Q02880 whole entry): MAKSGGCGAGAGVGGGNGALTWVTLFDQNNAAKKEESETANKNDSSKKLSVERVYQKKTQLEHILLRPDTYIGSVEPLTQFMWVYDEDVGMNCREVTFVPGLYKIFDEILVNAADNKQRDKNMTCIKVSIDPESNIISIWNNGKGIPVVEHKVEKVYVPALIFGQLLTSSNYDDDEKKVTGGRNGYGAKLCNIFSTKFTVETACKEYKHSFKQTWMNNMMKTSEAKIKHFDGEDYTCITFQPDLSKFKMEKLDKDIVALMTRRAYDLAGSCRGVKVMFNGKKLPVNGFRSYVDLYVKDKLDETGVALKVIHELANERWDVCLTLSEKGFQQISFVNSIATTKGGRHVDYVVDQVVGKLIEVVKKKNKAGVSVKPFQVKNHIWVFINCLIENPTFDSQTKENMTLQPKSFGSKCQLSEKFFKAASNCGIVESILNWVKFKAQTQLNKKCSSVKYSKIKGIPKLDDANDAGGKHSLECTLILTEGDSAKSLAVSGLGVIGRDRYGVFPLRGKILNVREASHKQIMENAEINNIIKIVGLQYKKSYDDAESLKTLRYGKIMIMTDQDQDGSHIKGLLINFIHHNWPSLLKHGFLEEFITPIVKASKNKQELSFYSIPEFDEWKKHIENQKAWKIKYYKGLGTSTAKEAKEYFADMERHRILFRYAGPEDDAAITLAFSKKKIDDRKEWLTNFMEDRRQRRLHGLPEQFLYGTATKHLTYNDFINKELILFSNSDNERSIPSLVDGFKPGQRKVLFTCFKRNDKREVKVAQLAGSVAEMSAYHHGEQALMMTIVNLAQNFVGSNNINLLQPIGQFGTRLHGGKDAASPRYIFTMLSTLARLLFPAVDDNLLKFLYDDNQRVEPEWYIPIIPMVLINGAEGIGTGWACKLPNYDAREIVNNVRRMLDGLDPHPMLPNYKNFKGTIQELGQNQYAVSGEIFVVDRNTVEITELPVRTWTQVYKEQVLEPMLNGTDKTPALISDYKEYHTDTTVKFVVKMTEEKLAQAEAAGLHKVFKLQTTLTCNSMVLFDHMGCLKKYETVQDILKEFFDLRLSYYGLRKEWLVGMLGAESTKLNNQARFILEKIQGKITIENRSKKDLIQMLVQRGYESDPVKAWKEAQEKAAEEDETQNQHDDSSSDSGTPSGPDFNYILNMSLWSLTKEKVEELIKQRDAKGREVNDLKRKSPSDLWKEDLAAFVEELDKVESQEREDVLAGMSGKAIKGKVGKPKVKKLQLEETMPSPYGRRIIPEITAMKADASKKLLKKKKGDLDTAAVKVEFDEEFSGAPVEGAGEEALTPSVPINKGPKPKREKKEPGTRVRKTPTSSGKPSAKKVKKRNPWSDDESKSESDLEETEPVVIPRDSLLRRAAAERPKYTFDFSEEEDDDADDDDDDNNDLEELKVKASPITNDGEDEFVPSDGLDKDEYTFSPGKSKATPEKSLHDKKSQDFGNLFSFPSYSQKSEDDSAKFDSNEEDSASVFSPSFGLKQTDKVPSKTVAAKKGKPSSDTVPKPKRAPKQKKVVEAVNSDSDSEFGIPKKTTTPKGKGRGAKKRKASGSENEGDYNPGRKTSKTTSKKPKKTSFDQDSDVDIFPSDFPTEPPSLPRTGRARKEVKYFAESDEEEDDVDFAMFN

A549 cells = assay: doxorubicin-mediated death of lung cancer cells, CellTiter-Glo (Example 22); format: cell-based; conditions: co-treated with increasing concentrations of doxorubicin, 72 hours
Protocol: A549 cells (lung cancer) were cultured for 1 day before performing experiments. […] XLFit was used for curve fitting.

[14] = test system: cardiomyocytes differentiated from induced pluripotent stem cells; assay: acute toxicity on electrophysiology, MEA beat period and field potential duration (Example 23); format: cell-based; conditions: lower drug concentration, at least 20 minutes
Protocol: Samples were either mock-treated with 0.1% DMSO, or treated with increasing concentrations of the indicated drug for at least 20 minutes. Cardiomyocytes were treated with the hERG potassium channel blocker E4031 as a control. Following treatment, the beat period and field potential duration (FPD) were measured in each sample using the MEA.

[15] = test system: cardiomyocytes differentiated from induced pluripotent stem cells; assay: long term toxicity on electrophysiology, active electrodes (Example 24); format: cell-based
Protocol: Samples were either mock-treated with 0.1% DMSO, or treated with various concentrations of the indicated drug. Following treatment, the percentage of active electrodes in each sample was measured for at least 5 days. Percentage of active electrodes was quantified and graphed in a time course.

cardiomyocytes [16] = assay: cytotoxicity of myricetin analogs to cardiomyocytes (Table 1, Toxicity)
[17] = test system: cardiomyocytes differentiated from induced pluripotent stem cells; assay: doxorubicin-induced mitochondrial toxicity, TMRM-negative cells, 48 hours (Example 17); format: cell-based, human; conditions: 1 μM doxorubicin, KAE 17 μM, AMB 0.76 μM, MES 10 μM, NAC 50 μM, Dex 160 μM, VIT 115 μM
Protocol: Following treatment, the samples were incubated with a tetramethylrhodamine methyl ester (TMRM) dye to indicate mitochondrial health, and a second dye to identify cell nuclei.

TOPOIIα = molecular target: T1, TOPOIIα (Homo sapiens, UniProt P11388); assay: kDNA decatenation assay, TOPOIIα; format: biochemical;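 further: kDNA incubated with one unit of TOPOIIα at 37 °C for 30 min, decatenated product resolved on 1% agarose gel, inhibition from relative band intensity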
T1 construct: purchased Inspiralis
T1 sequence (P11388 whole entry): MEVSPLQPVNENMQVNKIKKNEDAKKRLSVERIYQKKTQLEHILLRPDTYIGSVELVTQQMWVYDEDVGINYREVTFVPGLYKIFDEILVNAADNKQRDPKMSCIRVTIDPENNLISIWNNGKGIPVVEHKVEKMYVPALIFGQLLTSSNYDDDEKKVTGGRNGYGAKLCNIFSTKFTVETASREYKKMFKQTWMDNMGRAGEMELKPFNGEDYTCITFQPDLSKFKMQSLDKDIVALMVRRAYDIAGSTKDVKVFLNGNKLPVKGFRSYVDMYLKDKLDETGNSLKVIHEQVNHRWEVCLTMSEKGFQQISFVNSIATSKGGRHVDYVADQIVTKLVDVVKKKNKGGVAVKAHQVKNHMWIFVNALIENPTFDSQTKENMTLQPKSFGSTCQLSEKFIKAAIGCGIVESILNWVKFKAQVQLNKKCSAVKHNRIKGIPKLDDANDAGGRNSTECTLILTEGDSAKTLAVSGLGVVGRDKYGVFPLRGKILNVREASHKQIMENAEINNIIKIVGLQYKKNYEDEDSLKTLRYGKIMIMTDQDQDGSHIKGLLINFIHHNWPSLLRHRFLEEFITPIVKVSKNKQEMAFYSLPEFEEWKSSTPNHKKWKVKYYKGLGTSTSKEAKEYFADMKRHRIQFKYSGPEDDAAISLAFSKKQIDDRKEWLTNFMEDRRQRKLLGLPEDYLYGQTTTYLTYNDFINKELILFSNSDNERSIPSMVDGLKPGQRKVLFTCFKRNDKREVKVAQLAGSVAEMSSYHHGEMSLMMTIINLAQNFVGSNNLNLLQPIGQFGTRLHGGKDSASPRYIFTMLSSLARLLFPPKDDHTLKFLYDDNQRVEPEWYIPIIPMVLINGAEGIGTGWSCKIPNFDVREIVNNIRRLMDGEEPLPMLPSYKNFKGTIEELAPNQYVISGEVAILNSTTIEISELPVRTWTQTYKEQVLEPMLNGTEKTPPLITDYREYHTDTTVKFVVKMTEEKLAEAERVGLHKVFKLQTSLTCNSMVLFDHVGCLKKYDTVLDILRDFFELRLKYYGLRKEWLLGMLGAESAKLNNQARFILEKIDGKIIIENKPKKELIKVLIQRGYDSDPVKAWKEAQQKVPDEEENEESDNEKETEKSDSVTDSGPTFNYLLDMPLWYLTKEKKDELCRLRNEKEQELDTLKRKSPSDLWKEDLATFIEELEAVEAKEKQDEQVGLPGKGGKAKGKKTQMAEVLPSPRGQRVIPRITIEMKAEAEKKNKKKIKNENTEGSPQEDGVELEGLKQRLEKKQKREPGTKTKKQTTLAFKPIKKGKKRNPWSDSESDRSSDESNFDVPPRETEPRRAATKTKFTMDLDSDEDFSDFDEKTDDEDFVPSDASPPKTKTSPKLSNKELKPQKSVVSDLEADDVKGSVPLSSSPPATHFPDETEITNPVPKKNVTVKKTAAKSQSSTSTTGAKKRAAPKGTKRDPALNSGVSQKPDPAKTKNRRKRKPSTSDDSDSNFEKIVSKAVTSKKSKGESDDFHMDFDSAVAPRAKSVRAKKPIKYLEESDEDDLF

TOPOIIβ = molecular target: T2, TOPOIIβ (Homo sapiens, UniProt Q02880); assay: kDNA decatenation assay, TOPOIIβ; format: biochemical;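 further: kinetoplast DNA incubated with one unit of TOPOIIβ at 37 °C for 30 min, decatenated product resolved on 1% agarose gel, inhibition scored from relative band intensity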
T2 construct: purchased Inspiralis
T2 sequence (Q02880 whole entry): as the sequence (Q02880 whole entry) above

[18] = test system: cardiomyocytes differentiated from induced pluripotent stem cells; assay: electrophysiological activity with doxorubicin, active electrodes (Example 20); format: cell-based, human
Protocol: Samples were either mock-treated with 0.1% DMSO, treated with 1 μM doxorubicin, or co-treated with 1 μM doxorubicin and various concentrations of vitexin (e.g., 11.6 μM, 37 μM, or 116 μM). Following treatment, the percentage of active electrodes in each sample was measured for 72 hours. Percentage of active electrodes was quantified and graphed in a time course (FIG. 28A). The average number of active electrodes per well was quantified and graphed at 30 hours after the treatment (FIG. 28B, n=6, standard deviation is shown as error bars).

MDA-MB-231 cells [19] = assay: cells; conditions: Homo sapiens, MDA-MB-231, 72 h, read-out: cell viability LC50 of doxorubicin
[20] = test system: cardiomyocytes differentiated from induced pluripotent stem cells; assay: long-term mitochondrial health, TMRM, 7 days (Example 19); format: cell-based, human; conditions: 1 μM of doxorubicin
[21] = iPSC-CM, read-out: iPSC-CM protection EC50
[22] = MYR 40 mg/kg i.p. 30 minutes prior to doxorubicin 20 mg/kg, day 5
[23] = MYR 40 mg/kg i.p., 2-fold higher than doxorubicin
[24] = Doxorubicin 20 mg/kg single intraperitoneal injection, day 5 vs baseline

O=c1c(O)c(-c2cc(O)c(O)c(O)c2)oc2cc(O)cc(O)c12 [Compound 1, 3,5,7,3′,4′,5′-hexahydroxyflavone]
EC50 ([1]; Cardiomyocyte, approximate, read-out: EC50 for cardioprotection): 10 to 20 µM
EC50 [1, 21]: 14.5 µM
Emax ([1]; iPSC-CM): 78%
protection against DOX-induced double strand break (γH2AX-positive cells) ([2]; DOX (0.5 μM) plus 100 μM agent): significant protection
IC50 ([2]; Homo sapiens, Cardiomyocyte, read-out: IC50, concentration at which DOX-induced double strand break was reduced to 50%, 0.5 μM of doxorubicin): 5.28 µM
protection against DOX-induced sarcomere disruption [3]: significant protection
expression of TOPOIIα (TOPOIIα expression; myricetin in the presence of DOX): further repressed
EC50 [4]: 7.5 µM
rescue of bortezomib-induced cardiotoxicity (cardiomyocytes [5]): rescued
TOPOII expression (TOPOIIβ) in the presence of myricetin (TOPOIIβ mRNA expression; DOX plus myricetin): restored to a level close to normal
TOPOIIβ mRNA expression (TOPOIIβ mRNA expression): did not have any effect
correction of DOX-induced contractile dysfunction ([6]; DOX (0.5 μM) plus MYR (100 μM), as compared to DEX (100 μM)): significantly corrected
protection against sunitinib-induced cell death [7]: displayed protection
IC50 [8]: 20.5 µM
cardiac dysfunction corrected [9]: more than 80%
beat rate ([10]; 79 μM myricetin alone): 39.33 beats per minute
beat rate ([10]; co-treated with 79 μM myricetin and 1.25 μM doxorubicin): 37.33 beats per minute
difference in the number of total cells, as compared to mock-treated control [11]: no significant difference
reduction the number of total cells, as compared to mock-treated control ([11]; co-treated with myricetin and 1.25 μM doxorubicin, 72 hours): 27.57%
improvement of EF (C57BL/16 mice; [22]): 10%
improvement of FS (C57BL/16 mice; [22]): 7%
rescue of EF dysfunction caused by doxorubicin (C57BL/16 mice; [23]): 49%
rescue of FS dysfunction caused by doxorubicin (C57BL/16 mice; [23]): 52%
TMRM signal (mitochondrial health) [12]: greater TMRM signal

C[C@@H](CN1CC(=O)NC(=O)C1)N1CC(=O)NC(=O)C1 [dexrazoxane]
difference in the percentage of cell death vs doxorubicin without protective agent (MDA-MB-231 cells [13]): no significant difference
topoisomerase IIβ protein levels (topoisomerase IIβ): marked disappearance of TOPOIIβ
difference in the percentage of cell death vs doxorubicin without protective agent (A549 cells): no significant difference
difference in beat period or field potential duration vs control samples [14]: no appreciable difference
reduction in the number of active electrodes ([15]; 167 μM dexrazoxane, about 2 days post-treatment): ~25%
reduction in the number of active electrodes ([15]; 167 μM dexrazoxane, about 3 days post-treatment): ~50%
reduction in the number of active electrodes ([15]; 500 μM dexrazoxane, about 2 days post-treatment): ~50%
reduction in the number of active electrodes ([15]; 500 μM dexrazoxane, about 3 days post-treatment): ~100%

O=c1c(O)c(-c2ccc(O)cc2)oc2cc(O)cc(O)c12 [Compound 7, 3,5,7,4′-tetrahydroxyflavone]
Toxicity (cardiomyocytes [16]; * = cytotoxicity at 100 μM): −
toxic effects at concentrations less than 100 μM (cardiomyocytes [16]; Table 1): did not show toxic effects
cytotoxicity, in words (cardiomyocytes [16]; at 100 μM where stated, Table 1): without some level of cytotoxicity
maximum rescue rate [1]: < 50%
EC50 [1, 21]: 26 µM
Emax ([1]; iPSC-CM): 46%
cardioprotection, in words ([1]; Table 1): moderate level of cardioprotection
difference in the percentage of cell death vs doxorubicin without protective agent (MDA-MB-231 cells [13]): no significant difference
decrease in mitochondrial toxicity, compared to doxorubicin without protective agent [17]: at least 60%
TOPIIα Inhibition (TOPOIIα): −
TOPOIIα inhibition, in words (TOPOIIα; decatenation assay): did not exhibit any inhibitory effect
difference in the percentage of cell death vs doxorubicin without protective agent (A549 cells): no significant difference
TOPIIβ Inhibition (TOPOIIβ): −
TOPOIIβ inhibition, in words (TOPOIIβ; decatenation assay): did not exhibit any inhibitory effect
decrease in the number of active electrodes relative to the mock-treated sample ([15]; various concentrations, at least 5 days): no observable decrease

COc1cccc2c1C(=O)c1c(O)c3c(c(O)c1C2=O)C[C@@](O)(C(=O)CO)C[C@@H]3O[C@H]1C[C@H](N)[C@H](O)[C@H](C)O1 [doxorubicin, reference compound]
average number of active electrodes ([18]; 1 μM doxorubicin in the absence of vitexin, 30 hours): about 2 active electrodes
decrease in the number of active electrodes ([18]; 1 μM doxorubicin, in the absence of vitexin, 24 hours after drug treatment): ~50%
decrease in the number of active electrodes, relative to time zero ([18]; 1 μM doxorubicin, in the absence of vitexin, 30 hours after drug treatment): ~95%
expression of TOPOIIα (TOPOIIα expression; DOX alone, over time): slowly repressed
TOPOIIβ mRNA expression (TOPOIIβ mRNA expression): significantly repressed
dysfunction in cardiomyocyte contraction ([6]; DOX (0.5 μM)): reduction in beating, duration, and peak height
CC50 (MDA-MB-231 cells [19]): 0.53 µM
contraction ([10]; 1.25 μM doxorubicin, in the absence of myricetin): completely inhibited contraction
reduction in the number of total cells, as compared to mock-treated control ([11]; human, 72 h, 1.25 μM): 62.6%
mitochondrial toxicity (decrease in TMRM-positive cells) vs mock-treated [20]: increase in mitochondrial toxicity
decrease of ejection fraction (EF) (C57BL/16 mice; [24]): 19%
decrease of fractional shortening (FS) (C57BL/16 mice; [24]): 15%
